This is an account of results in patent publication US6399583B1, “Hybrid anthracyclines from genetically engineered streptomyces galilaeus strains, process for production and uses thereof” (Galilaeus Oy, priority 1998, dated 2002).

Each structure is given as a SMILES string. Read-outs that look alike come from different tables or passages of the source.

Experiment [1] has as its system B16-F0 melanoma. Nature of the experiment: Cytotoxicity assay, ATP detection, B16-F0. In kind it is cell-based, mouse. Conditions: B16-F0 cells in vitro, read-out: ED50 B16-F0. As to the method:
(§1) The cytotoxicity tests were performed in 96-well microtiter plates (sterile white plates with clear bottom, Corning Costar Corporation, Cambridge, Mass., USA). The anthracyclines were pipetted into the plates in 10 μl of ethanol, pure ethanol was used for control plates. Daunorubicin and aclarubicin were used as positive controls. When the ethanol had evaporated, the cells were seeded into the plates in 100 μl of appropriate medium. The number of cells seeded per well was 2500 with MES-SA, 3000 with MES-SA/D×5, 3000 with LL/2, 2000 with B16-F0 and B16-F1, 2000 with KLN-205 and 8000 with MLTC-1. The ATP content of the cells was measured after incubating the cells for three days at 37° C. with 5% CO2.
(§2) The growth medium was removed by turning the plates over, and 200 μl of ATP extraction reagent, Somalyze, were added to the wells. The plates were then incubated for 30 minutes at room temperature. The ATP measurement was performed with Luminoskan luminometer (Labsystems Oy, Helsinki, Finland) at 22° C. 20 μl of ATP monitoring reagent containing luciferin and luciferase was dispensed, and an integral measurement of 10 s with 2 s lag time was performed for each well. All reagents used were supplied by Bio-Orbit Oy, Turku, Finland.
(§3) The direct luminometer output (in relative light units, RLUS) was used to calculate the cytotoxic effect. This light signal is directly proportional to the amount of […] in a wide range (determined with Bio-Orbit ATP standard, data not shown). On the other hand, the amount of ATP is directly proportional to the amount of living cells (Kangas et al., 1984). The results are expressed as percentages of the control value of untreated cells. An IC50 value (the drug concentration resulting to an ATP signal of 50% of the untreated control signal) was graphically estimated from the % of control vs. drug concentration plot.
(§4) H075-4a was also tested with several mouse cell lines in vitro (all were purchased from ATCC, Rockville, Md., USA): Lewis lung carcinoma (LL/2) (CRL-1642), B16-F0 melanoma (CRL-6322), B16-F1 melanoma (CRL-6323), KLN-205 lung squamous cell carcinoma (CRL-1453) and MLTC-1 leydig cell tumor (CRL-2065) using daunomycin, aclarubicin and H075-1a (MA 144U1) as references.
(§5) All cells grew as monolayers and were cultured at 37° C. with 5% CO2 according to ATCC standard instructions for each cell line: LL/2 in Dulbecco's modified Eagle's medium with 4.5 g/l glucose and 10% FCS, B16-F0 and B16-F1 in MEM (Eagle) in Earle's BSS with non-essential amino acids and 10% FCS, KLN-205 in MEM (Eagle) in Earle's BSS with non-essential amino acids and 10% FCS, MLTC-1 in RPMI 1640 with 25 mM HEPES and 10% FBS. All media were purchased from Gibco BRL, the serum was Gibco BRL Foetal Bovine Serum. […]

In experiment [2] the test system is MES-SA human uterine sarcoma cells. Nature of the experiment: Cytotoxicity assay, luminescence ATP detection, MES-SA. In kind it is cell-based. Conditions: three days incubation, ATP content, highest concentration 10^-5 M, read-out: ED50 (nM) MES-SA. As to the method: The cytotoxicities of the new anthracyclines were tested in vitro with two cell lines: human uterine sarcomas MES-SA (CRL-1976; American Type Culture Collection (ATCC), Rockville, Md., USA) and MES-SA/D×5 (CRL-1977; ATCC, Rockville, Md., USA). MES-SA/D×5 has been developed by growing MES-SA cells in increasing concentrations of doxorubicin (Harker and Sikic, 1985).
Monolayer cultures were grown in McCoy's 5A medium with L-glutamine (Gibco BRL) supplemented with 10% FBS (Foetal Bovine Serum, Gibco BRL). No antibiotics were added. As the resistance is stable for at least 20 passages, the MES-SA/D×5 cells were grown without anthracycline selection (Harker and Sikic, 1985). Cells were maintained at 37° C. with 5% CO2 and subcultured every 3-5 days.
as §1, §2, §3

The subject of experiment [3] is B16-F1 melanoma. Put plainly: Cytotoxicity assay, ATP detection, B16-F1. In kind it is cell-based, mouse. The settings on record: B16-F1 cells in vitro, read-out: ED50 B16-F1. As to the method:
as §1, §2, §3, §4, §5

For experiment [4], the system named is Lewis lung carcinoma (LL/2). Put plainly: Cytotoxicity assay, ATP detection, LL/2. In kind it is cell-based, mouse. Conditions: LL/2 cells in vitro, read-out: ED50 LL/2. As for the experimental part:
as §1, §2, §3, §4, §5

For experiment [5], the system named is P388 leukemia. Nature of the experiment: Cytotoxic activity in vivo: P388 leukemia model. The settings on record: 10^6 P388 cells i.p. day 0. Also on record: species or system mice. The text has this: P388 leukemia was maintained by serial intraperitoneal (i.p.) transplantations in DBA/2JBom female mice purchased from M & B A/S, Ry, Denmark. The animals were maintained at the facilities of Central Animal Laboratory, University of Turku. The management of the animal unit is based on and followed the guidelines: “European Convention for the protection of Vertebrate Animals used for Experimental and other Scientific Purposes, European Treaty Series No. 123 (EU No. 609/86), Official Journal of European Communities No. L 358, Strasbourg Nov. 24, 1986”, and “The Statute No. 1360/90 of the Finnish Law, Helsinki Dec. 21, 1990: Asetus kokeellisiin ja muihin tieteellisiin tarkoituksiin käytettävien selkärankaisten eläinten suojelemiseksi tehdyn eurooppalaisen yleissopimuksen voimaansaattamisesta. Suomen s{umlaut over (aa)}doskokoelma.”
The in vivo tests were started by injecting 10^6 P388 cells suspended in Dulbecco's phosphate buffered saline i.p. in mice on day 0. Groups of 3 mice were used. The drugs were administered i.p. on day 1 on the basis of individual body weight. The control group received vehicle (10% ethanol in Dulbecco's phosphate buffered saline).

Experiment [6] relates to KLN-205 lung squamous cell carcinoma. Nature of the experiment: Cytotoxicity assay, ATP detection, KLN-205. In kind it is cell-based, mouse. Conditions: KLN-205 cells in vitro, read-out: ED50 KLN-205. As for the experimental part: as §1, §2, §3, §4, §5

In the case of `CCC1(O)CC(OC2CC(N(C)C)C(OC3CC(O)C(OC4CC(O)C(O)C(C)O4)C(C)O3)C(C)O2)c2c(O)c3c(c(O)c2C1C(=O)OC)C(=O)c1cccc(O)c1C3=O` (stereo not drawn) [Compound H075-4a], the EC50 came to 2 nM in experiment [1]; 1 nM in experiment [2]; 2 nM in experiment [3]; 8 nM in experiment [4]; 5 nM in experiment [6]. Further, the “Median survival days (range)” value in experiment [5] (1 mg/kg i.p. on day 1) was 14 (13-15) days; in experiment [5] (2 mg/kg i.p. on day 1), 14 (13-16) days; in experiment [5] (4 mg/kg i.p. on day 1), 15 (13-15) days; in experiment [5] (6 mg/kg i.p. on day 1), 15 (15-16) days.
As for `COc1cccc2c1C(=O)c1c(O)c3c(c(O)c1C2=O)C[C@@](O)(C(C)=O)C[C@@H]3O[C@H]1C[C@H](N)[C@H](O)[C@H](C)O1` [Daunorubicin], the EC50 in experiment [1] (Mus musculus, B16F0) turned out to be 20 nM; in experiment [2] (Homo sapiens, 72 h), 8 nM; in experiment [3] (Mus musculus) it was 8 nM; in experiment [4] (Mus musculus) it was 15 nM; in experiment [6] (Mus musculus) it was 90 nM. Also, in experiment [5] (4 mg/kg i.p. on day 1), the “Median survival days (range)” value is 14 (14-16) days.
